Measurements from ChEMBL document CHEMBL1681733, “Synthesis and evaluation of [(1R)-1-amino-2-(2,5-difluorophenyl)ethyl]cyclohexanes and 4-[(1R)-1-amino-2-(2,5-difluorophenyl)ethyl]piperidines as DPP-4 inhibitors” (Bioorg Med Chem Lett, 2011).

How the values were obtained:
[1] = Cmax in rat at 1 mg/kg, iv and 2 mg/kg, po; format: ADME, organism-based; settings: in vivo
[2] = Clearance in rat at 1 mg/kg, iv and 2 mg/kg, po; format: ADME, organism-based; settings: in vivo
[3] = Oral bioavailability in rat at 2 mg/kg; format: ADME, organism-based; settings: in vivo
Prolyl endopeptidase FAP = target: T1, Prolyl endopeptidase FAP (Homo sapiens, UniProt Q12884); test: Inhibition of FAP
T1 sequence (Q12884 whole entry): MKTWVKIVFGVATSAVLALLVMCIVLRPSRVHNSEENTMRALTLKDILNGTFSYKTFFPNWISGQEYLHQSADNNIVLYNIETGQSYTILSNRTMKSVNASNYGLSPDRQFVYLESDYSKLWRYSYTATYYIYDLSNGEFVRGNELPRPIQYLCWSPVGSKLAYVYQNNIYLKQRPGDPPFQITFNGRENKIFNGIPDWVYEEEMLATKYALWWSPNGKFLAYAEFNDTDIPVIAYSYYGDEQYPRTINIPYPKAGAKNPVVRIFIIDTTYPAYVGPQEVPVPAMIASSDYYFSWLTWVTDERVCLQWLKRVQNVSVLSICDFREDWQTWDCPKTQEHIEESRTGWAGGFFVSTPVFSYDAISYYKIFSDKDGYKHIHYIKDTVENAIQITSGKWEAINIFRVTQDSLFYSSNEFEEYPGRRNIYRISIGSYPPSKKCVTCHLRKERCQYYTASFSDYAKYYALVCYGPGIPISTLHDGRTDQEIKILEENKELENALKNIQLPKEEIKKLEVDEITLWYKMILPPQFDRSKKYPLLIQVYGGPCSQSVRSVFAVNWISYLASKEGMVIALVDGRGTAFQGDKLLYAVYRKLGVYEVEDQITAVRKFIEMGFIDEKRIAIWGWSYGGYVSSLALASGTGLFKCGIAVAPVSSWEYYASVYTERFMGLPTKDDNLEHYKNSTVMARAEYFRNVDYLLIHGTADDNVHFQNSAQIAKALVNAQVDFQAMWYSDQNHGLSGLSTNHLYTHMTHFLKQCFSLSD

[4] = Half life in rat at 1 mg/kg, iv and 2 mg/kg, po; format: ADME, organism-based; settings: in vivo
Dipeptidyl peptidase 2 = Dipeptidyl peptidase 2 (Homo sapiens, UniProt Q9UHL4); test: Inhibition of QPP
Dipeptidyl peptidase 8 = Dipeptidyl peptidase 8 (Homo sapiens, UniProt Q6V1X1); test: Inhibition of DPP8
Chain of Dipeptidyl peptidase 8 (Q6V1X1 whole entry): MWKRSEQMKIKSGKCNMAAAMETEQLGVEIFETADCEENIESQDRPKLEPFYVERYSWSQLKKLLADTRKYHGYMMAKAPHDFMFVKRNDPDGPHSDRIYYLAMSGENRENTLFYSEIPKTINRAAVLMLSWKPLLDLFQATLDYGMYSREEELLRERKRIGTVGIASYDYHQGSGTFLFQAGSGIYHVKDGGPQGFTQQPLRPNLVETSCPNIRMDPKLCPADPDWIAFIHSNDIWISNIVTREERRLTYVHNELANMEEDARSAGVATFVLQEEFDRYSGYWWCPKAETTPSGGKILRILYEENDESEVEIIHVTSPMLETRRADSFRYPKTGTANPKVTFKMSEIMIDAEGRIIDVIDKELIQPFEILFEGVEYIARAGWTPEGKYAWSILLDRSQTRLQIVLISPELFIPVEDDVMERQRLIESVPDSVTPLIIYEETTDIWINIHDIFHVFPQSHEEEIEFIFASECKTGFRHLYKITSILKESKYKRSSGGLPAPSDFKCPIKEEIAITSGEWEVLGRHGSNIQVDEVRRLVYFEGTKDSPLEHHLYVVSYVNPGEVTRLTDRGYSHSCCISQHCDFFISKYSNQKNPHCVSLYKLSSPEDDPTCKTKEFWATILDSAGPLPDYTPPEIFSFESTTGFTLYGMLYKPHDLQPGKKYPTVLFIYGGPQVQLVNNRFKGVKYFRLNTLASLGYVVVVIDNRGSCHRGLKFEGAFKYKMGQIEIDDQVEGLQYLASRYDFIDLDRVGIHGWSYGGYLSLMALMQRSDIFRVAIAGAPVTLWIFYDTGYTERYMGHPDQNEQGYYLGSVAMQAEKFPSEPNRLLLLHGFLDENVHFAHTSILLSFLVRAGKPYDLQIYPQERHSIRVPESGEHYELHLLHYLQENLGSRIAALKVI

Dipeptidyl peptidase 4 = Dipeptidyl peptidase 4 (Homo sapiens, UniProt P27487)
Chain of Dipeptidyl peptidase 4 (P27487 whole entry): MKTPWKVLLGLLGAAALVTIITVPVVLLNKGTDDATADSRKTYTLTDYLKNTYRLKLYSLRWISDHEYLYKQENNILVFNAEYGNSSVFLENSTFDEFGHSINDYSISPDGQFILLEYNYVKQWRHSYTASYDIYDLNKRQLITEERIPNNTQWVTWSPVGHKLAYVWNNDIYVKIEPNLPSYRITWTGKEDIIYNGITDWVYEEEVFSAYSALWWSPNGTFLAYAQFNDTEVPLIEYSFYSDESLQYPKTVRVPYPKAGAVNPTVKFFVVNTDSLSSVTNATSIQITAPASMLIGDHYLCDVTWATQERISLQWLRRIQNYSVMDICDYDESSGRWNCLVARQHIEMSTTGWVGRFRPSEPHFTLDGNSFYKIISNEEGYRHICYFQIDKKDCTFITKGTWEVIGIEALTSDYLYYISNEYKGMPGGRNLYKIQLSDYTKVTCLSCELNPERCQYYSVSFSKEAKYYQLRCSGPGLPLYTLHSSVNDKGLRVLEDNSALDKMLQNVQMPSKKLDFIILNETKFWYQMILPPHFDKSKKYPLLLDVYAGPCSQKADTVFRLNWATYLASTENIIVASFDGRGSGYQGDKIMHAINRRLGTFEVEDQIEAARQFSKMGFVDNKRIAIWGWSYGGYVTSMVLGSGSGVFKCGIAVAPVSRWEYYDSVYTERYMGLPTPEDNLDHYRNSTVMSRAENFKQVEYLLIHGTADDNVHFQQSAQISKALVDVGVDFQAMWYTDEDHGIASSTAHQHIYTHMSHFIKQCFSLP

Dipeptidyl peptidase 9 = Dipeptidyl peptidase 9 (Homo sapiens, UniProt Q86TI2); test: Inhibition of DPP9
Chain of Dipeptidyl peptidase 9 (Q86TI2 whole entry): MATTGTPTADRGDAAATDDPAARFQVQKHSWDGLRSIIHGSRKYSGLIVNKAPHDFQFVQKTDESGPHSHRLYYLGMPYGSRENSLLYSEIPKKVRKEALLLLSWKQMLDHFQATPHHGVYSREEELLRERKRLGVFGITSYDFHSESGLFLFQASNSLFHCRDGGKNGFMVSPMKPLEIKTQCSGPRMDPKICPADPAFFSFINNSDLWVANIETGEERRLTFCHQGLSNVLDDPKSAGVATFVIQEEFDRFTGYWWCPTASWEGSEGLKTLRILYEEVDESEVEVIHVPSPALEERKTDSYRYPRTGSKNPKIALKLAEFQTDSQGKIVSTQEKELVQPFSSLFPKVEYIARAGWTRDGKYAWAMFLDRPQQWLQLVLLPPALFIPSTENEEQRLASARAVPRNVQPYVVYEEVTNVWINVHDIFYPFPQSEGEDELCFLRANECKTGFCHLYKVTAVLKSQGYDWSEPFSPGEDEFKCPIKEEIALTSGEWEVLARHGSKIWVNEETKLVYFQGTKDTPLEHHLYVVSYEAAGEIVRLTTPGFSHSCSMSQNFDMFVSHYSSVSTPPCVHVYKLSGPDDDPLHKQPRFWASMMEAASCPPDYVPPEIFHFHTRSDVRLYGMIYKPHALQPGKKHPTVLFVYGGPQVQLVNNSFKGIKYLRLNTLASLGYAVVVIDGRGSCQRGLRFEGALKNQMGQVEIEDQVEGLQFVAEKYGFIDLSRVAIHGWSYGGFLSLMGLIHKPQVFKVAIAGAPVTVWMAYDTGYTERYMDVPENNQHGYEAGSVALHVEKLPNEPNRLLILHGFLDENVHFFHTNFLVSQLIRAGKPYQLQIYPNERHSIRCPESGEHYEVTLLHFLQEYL

Row | SMILES | Cmax [1] [nM] | clearance [2] [mL/min/kg] | bioavailability [3] [%] | IC50 (Prolyl endopeptidase FAP) [µM] | half-life [4] [h] | IC50 (Dipeptidyl peptidase 2) [µM] | IC50 (Dipeptidyl peptidase 8) [µM] | IC50 (Dipeptidyl peptidase 4) [µM] | IC50 (Dipeptidyl peptidase 9) [µM]
1 | CN([C@H]1CC[C@H]([C@H](N)Cc2cc(F)ccc2F)CC1)S(=O)(=O)c1cccc(C(N)=O)c1 | 19 | 204 | 13 | > 35 | – | – | – | – | –
2 | CN([C@H]1CC[C@H]([C@H](N)Cc2cc(F)ccc2F)CC1)S(=O)(=O)c1ccc(-c2csnn2)cc1 | 190 | 180 | 25 | > 35 | 3.5 | 8.5 | > 100 | 0.094 | –
3 | Cc1noc(C)c1S(=O)(=O)N(C)[C@H]1CC[C@H]([C@H](N)Cc2cc(F)ccc2F)CC1 | 32 | 116 | 2.2 | > 35 | 3 | 63 | > 100 | 0.055 | > 100
4 | CC(=O)N(C)[C@H]1CC[C@H]([C@H](N)Cc2cc(F)ccc2F)CC1 | 120 | 177 | 9.7 | > 35 | 1 | 83 | – | 0.12 | –
5 | CN(C(=O)CCC(=O)O)[C@H]1CC[C@H]([C@H](N)Cc2cc(F)ccc2F)CC1 | – | – | – | > 35 | – | > 100 | > 100 | 0.14 | > 100
6 | CCN(C(C)=O)[C@H]1CC[C@H]([C@H](N)Cc2cc(F)ccc2F)CC1 | – | – | – | > 35 | – | > 100 | > 100 | 0.26 | > 100
7 | CC(=O)N1CCC([C@H](N)Cc2cc(F)ccc2F)CC1 | – | – | – | > 35 | – | 66 | > 100 | 0.45 | > 100
8 | N[C@H](Cc1cc(F)ccc1F)C1CCN(c2cncnc2)CC1 | 19 | 171 | 4.5 | > 35 | 0.92 | – | – | – | –

Next, values leading:

Row | Cmax [1] [nM] | clearance [2] [mL/min/kg] | bioavailability [3] [%] | IC50 (Prolyl endopeptidase FAP) [µM] | half-life [4] [h] | IC50 (Dipeptidyl peptidase 2) [µM] | IC50 (Dipeptidyl peptidase 8) [µM] | IC50 (Dipeptidyl peptidase 4) [µM] | IC50 (Dipeptidyl peptidase 9) [µM] | SMILES
9 | – | – | – | > 35 | – | 51 | > 100 | 0.1 | > 100 | CC(=O)N(CCCC(F)(F)F)[C@H]1CC[C@H]([C@H](N)Cc2cc(F)ccc2F)CC1
10 | 24 | 201 | 24 | > 35 | 2.1 | – | – | – | – | NC(=O)[C@@H]1CCCN([C@H]2CC[C@H]([C@H](N)Cc3cc(F)ccc3F)CC2)C1
11 | 69 | 154 | 22 | > 35 | 2.8 | – | – | – | – | Cc1ccc(N2CCC([C@H](N)Cc3cc(F)ccc3F)CC2)c(C)n1
